From patent US11499197B2, “Prognosis method of multiple myeloma” (CENTRE NATIONAL DE LA RECHERCHE SCIENTIFIQUE, priority 2017, dated 2022)

What was measured:
XG1 = assay: Cell Titer Glo viability, XG1 HMCL; type: cell-based, human; details: XG1, CTG viability
Method: (§1) AMO-1 and OPM2 HMCLs were purchased from DSMZ (Braunschweig, Germany), XG1 and XG21 were obtained as described (Moreaux et al., 2011). HMCLs were cultured in RPMI 1640 medium, 10% FCS (control medium). For XG-IL-6 dependent HMCLs 2 ng/ml IL-6 was added. Cells were cultured in 96-well flat-bottom microtiter plates in the presence of a concentration range of selected compounds: AZD7762 and OTSSP167 (Selleck, euromedex), HITOPK032, XL413, SRPIN340 (Sigma), AZ3146, Centrinone B (Tocris). Cell Titer Glo Luminescent Assay (Promega, Madison, Wis., USA) was used to assess cell viability, and the 50% inhibition (IC50) was determined using GraphPad Prism software (http://www.graphpad.com/scientific-software/prism/).
(§2) Statistical comparisons were done with unpaired or paired Student's t-tests. The effect of drug combination was evaluated using the methods developed by Chou and Talalay (Chou and Talalay, 1984) by calculating the combination Index (CI), with CI<1, CI=1, and CI>1 respectively indicating synergism, additive effects, and antagonism. Here we used CI=0.90-1.10 to indicated additivity.

AMO1 HMCL [1] = assay: Apoptosis (annexin V, PARP cleavage) by flow cytometry; type: cell-based, human; details: for cell death via apoptosis (annexin) on co-treatment: AMO1, sub-lethal Melphalan or Lenalidomide + inhibitor at IC20, 4 days
From the text: FIG. 14 represents graphs showing that inhibitors increase apoptosis (annexin and PARP) in AMO1 cell line; Annexin and PARP were monitored by flow cytometry after 4 days treatments. p-value: *<0.05; **<0.01; ***<0.001.
FIG. 25 represents graphs illustrating that the co-treatments induce cell death and differentially affect DNA damages in AMO1 HMCL. Co-treatment with selected kinase inhibitors at IC20 and Melphalan or Lenalidomide.
(§3) Cells were culture in 12 wells plate for 4 days. Apoptotic cells were detected using phycoerythrin-conjugated Annexin V (PE-annexin V, BD Pharmingen). For the cell cycle and DNA damage, we used the Apoptosis, DNA damage and cell proliferation kit (BD), following the manufacturer's protocol.

AMO1 HMCL [2] = assay: Proteome profiler array (phospho kinases, apoptosis proteins); type: cell-based, human; details: AMO1, 48 h treatment
Method: Proteins accumulations were monitored after 48 h treatment on AMO1 HMCL using proteome profiler array. Relative amount was calculated as the mean of pixel density. Phospho kinases and apoptosis proteins were quantified using the dedicated proteome Profiler™ array (RD systems, Bio-techne) following the manufacturer instructions. 500 μg and 300 μg protein were used for the two arrays respectively.

[3] = test system: primary Mouse myeloma (5T33vv) and mouse myeloma cell line (5T33vt); assay: Mouse myeloma cell viability (CTG); type: cell-based; details: 5T33vv and 5T33vt, CTG after 24, 48 or 96 hours
Method: FIG. 18 represents graphs cell viability of primary Mouse myeloma (5T33vv) and mouse myeloma cell line (5T33vt), monitored by CTG after 24, 48 or 96 hours treatment with indicated inhibitors.

[4] = test system: normal BM microenvironment cells from patients; assay: Toxicity on non-tumoral bone marrow cells in primary patient cultures; type: cell-based, human; details: N=5 patients, 4 days
From the text: CD138 amount was monitored by flow cytometry after 4 days of treatment.

[5] = test system: primary MM cells from patients; assay: Primary myeloma cell cytotoxicity (CD138 flow cytometry); type: cell-based, human; details: N=5 patients, 4 days of treatment
From the text: FIG. 16 represents graphs showing the % of CD138+ cells after treatment by AZD7762, OTSSP167 and Centrinone B in 5 different primary MM cells.
FIG. 17 represents graphs showing that the three tested inhibitors reduce % of tumor MM cells without toxicity on normal BM microenvironment cells from patients (N=5). CD138 amount was monitored by flow cytometry after 4 days of treatment.
Bone marrow of patients presenting with previously untreated MM (N=5) at the university hospital of Montpellier was obtained after patients' written informed consent in accordance with the Declaration of Helsinki and agreement of the Montpellier University Hospital Centre for Biological Resources (DC-2008-417). Primary myeloma cells of patients were cultured with or without graded concentrations of selected inhibitors and MMC cytotoxicity evaluated using anti-CD138-Phycoerythrin monoclonal antibody and CD38-Allophycocyanin (Beckman-Coulter) as described (Moreaux et al., 2012).

[6] = test system: HMCLs (AMO1, OPM2, XG1, XG21); assay: HMCL viability, single and co-treatment with conventional MM drugs (CTG); type: cell-based, human; details: for Lenalidomide treatment on co-treatment with kinase inhibitor / synergy with lenalidomide / synergy with melphalan: inhibitor at IC20; for Lenalidomide treatment on co-treatment with kinase inhibitor: AMO1 and OPM2; for synergy with lenalidomide / synergy with melphalan: XG1, XG21, AMO1, OPM2
Method: as §1, §2
Keeping in mind the main objective of identifying alternative and efficient complementary treatment for MM patients, the inventors next performed co-treatment on HMCLs with commonly used therapeutic drugs in MM (e.g. Melphalan, Lenalidomide, Velcade) and the different kinases inhibitors. In order to fit to the goal of a combination treatment the inventors used an arbitrary […] for all the kinases inhibitors, which the inventors associated with various concentration of the standard therapeutic.

OPM2 = assay: Cell Titer Glo viability, OPM2 HMCL; type: cell-based, human; details: OPM2, CTG viability
Method: as §1, §2

XG21 = assay: Cell Titer Glo viability, XG21 HMCL; type: cell-based, human; details: XG21, CTG viability
Method: as §1, §2

AMO1 HMCL [7] = assay: Cell cycle analysis by flow cytometry; type: cell-based, human; details: for cell cycle arrest: AMO1, single agent; for cell cycle arrest on co-treatment with melphalan or lenalidomide: AMO1, 4 days co-treatment
From the text: FIG. 15 represents graphs showing the effects of the treatments with inhibitors on cell cycle in AMO1 cells. p-value: *<0.05; **<0.01; ***<0.001.
FIG. 29 represents graphs illustrating that Co-treatments differentially affect cell cycle in AMO1 cell line. Cotreatment with Melphalan or Lenalidomide and A) AZD7762; B) OTSSP167; C) Centrinone B; D) XL413. Cell cycle was monitored by flow cytometry after 4 days co-treatments. p-value: *<0.05; **<0.01; ***<0.001.
as §3

XG7 WT and XG7 Mres = assay: Viability of melphalan sensitive and resistant cell lines (CTG); type: cell-based, human; details: inhibitor at IC20
Method: FIG. 32 represents a graph of the calculated IC50 for the co-treatment with melphalan and selected kinase inhibitors at IC20. Melphalan sensitive (XG7 WT) and Resistant (XG7 MRes) cell lines were treated for 4 days with the selected kinases inhibitors. Cell viability was monitored by the CTG. p-value: *<0.05; **<0.01; ***<0.001.
The facts that: 1) all drugs tested are actively decreasing HMCLs viability and induce apoptosis; 2) co-treatment with melphalan leads to synergy or potentialized the decrease of cell viability; 3) some of the selected kinases inhibitors can reverse the resistance to lenalidomide in AMO1 HMCL, led us to question the capability of these drugs to reverse or reduce also melphalan resistance. In that purpose, the inventors used a cell line developed in the inventors' laboratory, and that has been culture to resist to melphalan (Mres) compare to its negative control (WT) (FIG. 30). The inventors first tested the capacity of the different inhibitors to reduce cell viability in this model. All tested kinase's inhibitors lower cell viability of the control or the melphalan resistant cell line.

AMO1 = assay: Cell Titer Glo viability, AMO1 HMCL; type: cell-based, human; details: for IC20 / IC50: AMO1, CTG viability
Method: as §1, §2

AMO1 HMCL [8] = assay: DNA damage (γH2AX) by flow cytometry; type: cell-based, human; details: for γH2AX (DNA damages), used alone: AMO1, 4 days
From the text: FIG. 27 represents graphs illustrating that the co-treatments induce cell death and differentially affect DNA damages in AMO1 HMCL.
FIG. 28 represents graphs representing DNA damages following SRPIN340 and AZ3146 co-treatment in AMO1 cell line. γH2AX were monitored by flow cytometry after 4 days treatments. p-value: *<0.05; **<0.01; ***<0.001.
as §3

Row | Molecule | cell death via apoptosis (annexin) on co-treatment (AMO1 HMCL [1]) | cell viability in mouse cellular model of multiple myeloma [3] | effect on non-tumoral cells [4] | number of tumoral cells (CD138+) [5] | Lenalidomide treatment on co-treatment with kinase inhibitor [6] | synergy with lenalidomide [6] | synergy with melphalan [6] | cell cycle arrest (AMO1 HMCL [7]) | melphalan resistance on co-treatment with melphalan (XG7 WT and XG7 Mres) | IC50 (XG1) [nM] | IC50 (OPM2) [nM] | IC50 (XG21) [nM] | IC20 (AMO1) [nM] | IC50 (AMO1) [nM] | γH2AX (DNA damages), used alone (AMO1 HMCL [8]) | other results
1 | NC(=O)Nc1cc(-c2cccc(F)c2)sc1C(=O)N[C@H]1CCCNC1 [AZD7762] | increase cell death via apoptosis | demonstrated similar efficiency | barely affected | reduced the number of tumoral cells | potentialized | synergized with the conventional treatment | synergized with the conventional treatment | arrested the cells in S phase | reversed the melphalan resistance | – | – | – | – | – | – | IC50 (XG1; Homo sapiens): 95 nM; claspin and survivin (AMO1 HMCL [2]): decrease in claspin and survivin; IC50 (OPM2; Homo sapiens, OPM-2): 116 nM; IC50 (XG21; Homo sapiens): 210 nM; IC20 (AMO1; Homo sapiens): 82 nM; IC50 (AMO1; Homo sapiens): 136 nM
2 | COc1c(Nc2cc(C)[nH]n2)nc(Sc2ccc(S(=O)(=O)Cc3cccc([N+](=O)[O-])c3F)cc2F)nc1N1CCCCC1 [Centrinone-B] | potentialized cell death only with lenalidomide | less effective on cell viability | barely affected | reduced the number of tumoral cells | – | synergized with the conventional treatment | – | arrested the cell cycle in G0/G1 | – | 226 | 440 | 1390 | 24 | 421 | – | –
3 | N#Cc1c2nc3ccccc3nc2n2ccc(NC(=O)c3cccs3)cc12 [HI)TOPK] | – | – | – | – | potentialized | synergized with the conventional treatment | synergized with the conventional treatment | – | reversed the melphalan resistance | 4400 | 5000 | 4100 | 3900 | 5100 | – | –
4 | CC(=O)c1cnc2ccc(-c3cc(Cl)c(O)c(Cl)c3)nc2c1N[C@H]1CC[C@H](CN(C)C)CC1 [OTSSP167] | increase cell death via apoptosis | demonstrated similar efficiency | barely affected | reduced the number of tumoral cells | potentialized | synergized with the conventional treatment | synergized with the conventional treatment | arrested the cells in S phase | – | – | – | – | – | – | showed an activity on […]H2AX recruitment when used alone | IC50 (XG1; Homo sapiens): 12 nM; IC50 (OPM2; Homo sapiens, OPM-2): 16 nM; IC50 (XG21; Homo sapiens): 2 nM; cell cycle arrest on co-treatment with melphalan or lenalidomide (AMO1 HMCL [7]): no differences between single and co-treatment; γH2AX (DNA damages) on co-treatment with melphalan (AMO1 HMCL [8]; AMO1, inhibitor at IC20, 4 days): significantly potentialized the melphalan co-treatment by increasing […]H2AX; IC20 (AMO1; Homo sapiens): 5.4 nM; IC50 (AMO1; Homo sapiens): 8.2 nM
5 | O=C(Nc1cc(C(F)(F)F)ccc1N1CCCCC1)c1ccncc1 [SRPIN340] | didn't have any significant additional effect on cell death | – | – | – | – | synergized with the conventional treatment | – | – | – | 30100 | 33200 | 25800 | 30000 | 43300 | showed an activity on […]H2AX recruitment when used alone | apoptosis as measured by annexin V staining and PARP clivage (AMO1 HMCL [1]; AMO1, single agent, 2 concentrations surrounding IC50, 4 days): all drugs but SRPIN340/SRPK1 induced apoptosis
6 | Cl.O=c1[nH]c([C@@H]2CCCN2)nc2c1oc1ccc(Cl)cc12 [XL413] | increase cell death via apoptosis | – | – | – | – | – | synergized with the conventional treatment | arrested the cells in S phase | reversed the melphalan resistance | 4200 | 24500 | 30300 | 9400 | 19900 | showed an activity on […]H2AX recruitment when used alone | cell cycle arrest on co-treatment with melphalan or lenalidomide (AMO1 HMCL [7]): no differences between single and co-treatment
7 | Nc1cccc2c1CN(C1CCC(=O)NC1=O)C2=O (stereo not shown) [lenalidomide] | – | – | – | – | – | – | – | – | – | – | – | – | – | – | didn't demonstrate any particular effect | Lenalidomide effect on viability alone or in combination ([6]; lenalidomide resistant HMCLs XG1 and XG21): no effect of the treatment alone or in combination; Lenalidomide IC50, treatment alone (AMO1; AMO1): undetermined
8 | N[C@@H](Cc1ccc(N(CCCl)CCCl)cc1)C(=O)O [melphalan] | – | – | – | – | – | – | – | – | – | – | – | – | – | – | increased the measured […]H2AX | –
9 | AZ3146 | didn't have any significant additional effect on cell death | – | – | – | – | – | – | arrested the cell cycle in G0/G1 | – | 1200 | 1900 | 3000 | 1400 | 2600 | – | –
